Measurements: a compilation of properties of binary mixtures (doi:10.1016/j.molliq.2020.112718)

Experiment: xn = mol fraction of the nth substance listed
Details: 100 kPa

COCC[n+]1ccn(C)c1.C[C@@H](O)[C@H](N)C(=O)[O-] + O
viscosity [mPa·s]
Details	298.15 K	303.15 K	308.15 K	313.15 K	318.15 K	323.15 K	328.15 K
x1 = 0.3313	740	473	–	199.2	139.9	101.7	82.2
x1 = 0.3795	767	500	306	210	148.1	108.5	84.9
x1 = 0.4475	800	529	320	222	155.8	–	88.2
x1 = 0.5347	829	–	332	233	–	–	91.3
x1 = 0.657	852	–	344	242	171.8	–	94.8
x1 = 1	900	625	362	260	184.4	136.8	99.6

CCOCC[n+]1ccn(C)c1.C[C@@H](O)[C@H](N)C(=O)[O-] + O
viscosity [mPa·s]
Details	298.15 K	303.15 K	308.15 K	313.15 K	318.15 K	323.15 K	328.15 K
x1 = 0.3157	834	538	344	231	167	–	97.8
x1 = 0.3647	889	571	360	–	174.5	–	–
x1 = 0.4246	938	604	376	259	180.6	130.8	102.6
x1 = 0.508	990	638	393	273	187.2	136.2	–
x1 = 0.6189	–	671	410	287	195	143.5	109.6
x1 = 1	1133	730	439	313	207	153.8	–
